Source: paper PMC12664123, “Exploring Nirmatrelvir Derivatives Through P2 Substituent Modifications and Warhead Innovations Targeting the Main Protease of SARS‐CoV‐2” (Archiv Der Pharmazie, 2025)

Tests used:
SARS-CoV-2 M^pro [1] = biological target: T1, SARS-CoV-2 M^pro (Severe acute respiratory syndrome coronavirus 2, UniProt P0DTD1); assay: Determination of the inhibition constants (Ki) for SARS-CoV-2 Mpro, Morrison equation, QS1 fluorogenic substrate; type: biochemical; details: for Ki / Biological Activity (pKi): M^pro 25 nM, QS1 20 µM; for Ki: 30 min preincubation at 37°C, pH 7.2; for Biological Activity (pKi): supplement table, 30 min preincubation at 37 °C; for fold more potent than compound 22 / ΔpK i relative to oxime analog 22: warhead exchange, vs compound 22
[2] = Metabolic stability against liver microsomes, loss of parent compound by HPLC-UV; details: 37°C; for remaining parent compound after 480 min: rat liver microsomes 0.2 mg/mL, NADPH, 100 µM compound, 480 min (8 h); for metabolic stability toward liver microsomes (in words): rat liver microsomes, up to 480 min
WT SARS-CoV-2 Mpro = WT SARS-CoV-2 Mpro (Severe acute respiratory syndrome coronavirus 2, UniProt P0DTD1); assay: Jump-dilution assay for reversibility of inhibition; type: biochemical; details: for mechanism of inhibition (reversibility): incubated 30 min at 100 nM M^pro and 200 nM inhibitor, 10-fold dilution, followed 30 min; for residual enzyme activity after jump dilution: 10-fold dilution to 10 nM M^pro, 20 nM inhibitor
SARS-CoV-2 M^pro [3] = biological target: T1, SARS-CoV-2 M^pro; assay: Determination of Kinact/KI for time-dependent (irreversible) inhibitors, progress curves; type: biochemical; details: for kinact/KI: read-out: Kinact/KI (supplement table)

Compound: CO[C@@H]1C[C@@H](C(=O)N[C@H](C=NO)C[C@@H]2CCNC2=O)N(C(=O)[C@@H](NC(=O)C(F)(F)F)C(C)(C)C)C1 [Compound 22, (2S,4R)−1‐{(S)−3,3‐Dimethyl‐2‐(2,2,2‐Trifluoroacetamido)butanoyl}‐N‐[(S)−1‐(Hydroxyimino)−3‐[(S)−2‐Oxopyrrolidin‐3‐yl]Propan‐2‐yl]−4‐Methoxypyrrolidine‐2‐Carboxamide]
- Ki (SARS-CoV-2 M^pro [1]): 158 nM
- Biological Activity (pKi) (SARS-CoV-2 M^pro [1]): 6.8 ± 0.01
- remaining parent compound after 480 min [2]: ca. 60%
- mechanism of inhibition (reversibility) (WT SARS-CoV-2 Mpro): reversible

Compound: CO[C@@H]1C[C@@H](C(=O)N[C@H](/C=C(\F)S(=O)(=O)c2ccccc2)C[C@@H]2CCNC2=O)N(C(=O)[C@@H](NC(=O)C(F)(F)F)C(C)(C)C)C1 [Compound 30, (2S,4R)−1‐{(S)−3,3‐Dimethyl‐2‐(2,2,2‐Trifluoroacetamido)Butanoyl}‐N‐[(S,E)−4‐Fluoro‐1‐((S)−2‐Oxopyrrolidin‐3‐yl)−4‐(Phenylsulfonyl)but‐3‐en‐2‐yl]−4‐Methoxypyrrolidine‐2‐Carboxamide]
- Ki (SARS-CoV-2 M^pro [1]): 7.94 nM
- Biological Activity (pKi) (SARS-CoV-2 M^pro [1]): 8.1 ± 0.01
- fold more potent than compound 22 (SARS-CoV-2 M^pro [1]): ~20 fold
- ΔpK i relative to oxime analog 22 (SARS-CoV-2 M^pro [1]): 1.3
- remaining parent compound after 480 min [2]: ~100%
- mechanism of inhibition (reversibility) (WT SARS-CoV-2 Mpro): reversible

Compound: CC(C)(C)[C@H](NC(=O)C(F)(F)F)C(=O)N1C[C@H](c2ccccc2)C[C@H]1C(=O)N[C@H](C=NO)C[C@@H]1CCNC1=O [Compound 23, (2S,4S)−1‐{(S)−3,3‐Dimethyl‐2‐(2,2,2‐Trifluoroacetamido)Butanoyl}‐N‐[(S)−1‐(Hydroxyimino)−3‐[(S)−2‐Oxopyrrolidin‐3‐yl]Propan‐2‐yl]−4‐Phenylpyrrolidine‐2‐Carboxamide]
- Ki (SARS-CoV-2 M^pro [1]): 50.1 nM
- Biological Activity (pKi) (SARS-CoV-2 M^pro [1]): 7.3 ± 0.01

Compound: CC(C)(C)[C@H](NC(=O)C(F)(F)F)C(=O)N1C[C@H]2[C@@H]([C@H]1C(=O)N[C@H](C#N)C[C@@H]1CCNC1=O)C2(C)C [nirmatrelvir]
- remaining parent compound after 480 min [2]: ca. 80%

Compound: CC(C)(C)[C@H](NC(=O)C(F)(F)F)C(=O)N1C[C@H](C2CCCCC2)C[C@H]1C(=O)N[C@H](C=NO)C[C@@H]1CCNC1=O [Compound 27, (2S,4S)−4‐Cyclohexyl‐1‐{(S)−3,3‐Dimethyl‐2‐(2,2,2‐Trifluoroacetamido)Butanoyl}‐N‐[(S)−1‐(Hydroxyimino)−3‐[(S)−2‐Oxopyrrolidin‐3‐yl]Propan‐2‐yl]Pyrrolidine‐2‐Carboxamide]
- Ki (SARS-CoV-2 M^pro [1]): 100 nM
- Biological Activity (pKi) (SARS-CoV-2 M^pro [1]): 7.0 ± 0.02

Compound: CC(C)(C)[C@H](NC(=O)C(F)(F)F)C(=O)N1C[C@H](c2ccccc2)C[C@H]1C(=O)N[C@H](C#N)C[C@@H]1CCNC1=O [Compound 34, (2S,4S)‐N‐[(S)−1‐Cyano‐2‐[(S)−2‐Oxopyrrolidin‐3‐yl]Ethyl]−1‐{(S)−3,3‐Dimethyl‐2‐(2,2,2‐Trifluoroacetamido)Butanoyl}−4‐Phenylpyrrolidine‐2‐Carboxamide]
- Ki (SARS-CoV-2 M^pro [1]): 1.26 nM
- Biological Activity (pKi) (SARS-CoV-2 M^pro [1]): 8.9 ± 0.01
- metabolic stability toward liver microsomes (in words) [2]: comparable stability to the initial prototype 22

Compound: CC(C)(C)[C@H](NC(=O)C(F)(F)F)C(=O)N1C[C@H](OCc2ccccc2)C[C@H]1C(=O)N[C@H](C=NO)C[C@@H]1CCNC1=O [Compound 29, (2S,4R)−4‐(Benzyloxy)−1‐{(S)−3,3‐Dimethyl‐2‐(2,2,2‐Trifluoroacetamido)Butanoyl}‐N‐[(S)−1‐(Hydroxyimino)−3‐[(S)−2‐Oxopyrrolidin‐3‐yl]Propan‐2‐yl]Pyrrolidine‐2‐Carboxamide]
- Ki (SARS-CoV-2 M^pro [1]): 200 nM
- Biological Activity (pKi) (SARS-CoV-2 M^pro [1]): 6.7 ± 0.02

Compound: C#CCO[C@@H]1C[C@@H](C(=O)N[C@H](C=NO)C[C@@H]2CCNC2=O)N(C(=O)[C@@H](NC(=O)C(F)(F)F)C(C)(C)C)C1 [Compound 25, (2S,4R)−1‐{(S)−3,3‐Dimethyl‐2‐(2,2,2‐Trifluoroacetamido)Butanoyl}‐N‐[(S)−1‐(Hydroxyimino)−3‐[(S)−2‐Oxopyrrolidin‐3‐yl]Propan‐2‐yl]−4‐(Prop‐2‐yn‐1‐Yloxy)Pyrrolidine‐2‐Carboxamide]
- Ki (SARS-CoV-2 M^pro [1]): 31.6 nM
- Biological Activity (pKi) (SARS-CoV-2 M^pro [1]): 7.5 ± 0.04

Compound: CCO[C@@H]1C[C@@H](C(=O)N[C@H](C=NO)C[C@@H]2CCNC2=O)N(C(=O)[C@@H](NC(=O)C(F)(F)F)C(C)(C)C)C1 [Compound 26, (2S,4R)−1‐{(S)−3,3‐Dimethyl‐2‐(2,2,2‐Trifluoroacetamido)Butanoyl}−4‐Ethoxy‐N‐[(S)−1‐(Hydroxyimino)−3‐[(S)−2‐Oxopyrrolidin‐3‐yl]Propan‐2‐yl]Pyrrolidine‐2‐Carboxamide]
- Ki (SARS-CoV-2 M^pro [1]): 100 nM
- Biological Activity (pKi) (SARS-CoV-2 M^pro [1]): 7.0 ± 0.02

Compound: CC(=O)N[C@@H]1C[C@@H](C(=O)N[C@H](C=NO)C[C@@H]2CCNC2=O)N(C(=O)[C@@H](NC(=O)C(F)(F)F)C(C)(C)C)C1 [Compound 28, (2S,4R)−4‐Acetamido‐1‐{(S)−3,3‐Dimethyl‐2‐(2,2,2‐Trifluoroacetamido)Butanoyl}‐N‐[(S)−1‐(Hydroxyimino)−3‐[(S)−2‐Oxopyrrolidin‐3‐yl]Propan‐2‐yl]Pyrrolidine‐2‐Carboxamide]
- Ki (SARS-CoV-2 M^pro [1]): 100 nM
- Biological Activity (pKi) (SARS-CoV-2 M^pro [1]): 7.0 ± 0.03

Compound: CO[C@@H]1C[C@@H](C(=O)N[C@H](C#N)C[C@@H]2CCNC2=O)N(C(=O)[C@@H](NC(=O)C(F)(F)F)C(C)(C)C)C1 [Compound 31, (2S,4R)‐N‐[(S)−1‐Cyano‐2‐[(S)−2‐Oxopyrrolidin‐3‐yl]Ethyl]−1‐{(S)−3,3‐Dimethyl‐2‐(2,2,2‐Trifluoroacetamido)Butanoyl}−4‐Methoxypyrrolidine‐2‐Carboxamide]
- Ki (SARS-CoV-2 M^pro [1]): 1.58 nM
- Biological Activity (pKi) (SARS-CoV-2 M^pro [1]): 8.8 ± 0.01
- fold more potent than compound 22 (SARS-CoV-2 M^pro [1]): 100 fold
- ΔpK i relative to oxime analog 22 (SARS-CoV-2 M^pro [1]): 2.0
- remaining parent compound after 480 min [2]: ~100%

Compound: CO[C@@H]1C[C@@H](C(=O)N[C@H](/C=C/S(=O)(=O)c2ccccc2)C[C@@H]2CCNC2=O)N(C(=O)[C@@H](NC(=O)C(F)(F)F)C(C)(C)C)C1 [Compound 32, (2S,4R)−1‐{(S)−3,3‐Dimethyl‐2‐(2,2,2‐Trifluoroacetamido)butanoyl}−4‐Methoxy‐N‐[(S,E)−1‐((S)−2‐Oxopyrrolidin‐3‐yl)−4‐(Phenylsulfonyl)but‐3‐en‐2‐yl]Pyrrolidine‐2‐Carboxamide]
- kinact/KI (SARS-CoV-2 M^pro [3]): 4400 M⁻¹ s⁻¹
- residual enzyme activity after jump dilution (WT SARS-CoV-2 Mpro): very low residual enzyme activity
- mechanism of inhibition (reversibility) (WT SARS-CoV-2 Mpro): irreversible

Compound: COc1ccc(C(=O)ON=C[C@H](C[C@@H]2CCNC2=O)NC(=O)[C@@H]2C[C@@H](OC)CN2C(=O)[C@@H](NC(=O)C(F)(F)F)C(C)(C)C)cc1 [Compound 33, (2S,4R)−1‐{(S)−3,3‐Dimethyl‐2‐(2,2,2‐Trifluoroacetamido)Butanoyl}−4‐Methoxy‐N‐[(S)−1‐[((4‐Methoxybenzoyl)Oxy)Imino]−3‐[(S)−2‐Oxopyrrolidin‐3‐yl]Propan‐2‐yl]Pyrrolidine‐2‐Carboxamide]
- metabolic stability toward liver microsomes (in words) [2]: readily degraded
- fold higher reactivity than the vinyl sulfone (32) (SARS-CoV-2 M^pro [3]; Kinact/KI of 33 vs 32): ~20 fold
- kinact/KI (SARS-CoV-2 M^pro [3]): 77000 M⁻¹ s⁻¹
- residual enzyme activity after jump dilution (WT SARS-CoV-2 Mpro): very low residual enzyme activity
- mechanism of inhibition (reversibility) (WT SARS-CoV-2 Mpro): irreversible

Compound: C=CCO[C@@H]1C[C@@H](C(=O)N[C@H](C=NO)C[C@@H]2CCNC2=O)N(C(=O)[C@@H](NC(=O)C(F)(F)F)C(C)(C)C)C1 [Compound 24, (2S,4R)−4‐(Allyloxy)−1‐{(S)−3,3‐Dimethyl‐2‐(2,2,2‐Trifluoroacetamido)Butanoyl}‐N‐[(S)−1‐(Hydroxyimino)−3‐[(S)−2‐Oxopyrrolidin‐3‐yl]Propan‐2‐yl]Pyrrolidine‐2‐Carboxamide]
- Ki (SARS-CoV-2 M^pro [1]): 50.1 nM
- Biological Activity (pKi) (SARS-CoV-2 M^pro [1]): 7.3 ± 0.08

Compound: C[C@]12CC[C@H]3[C@@H](CCC4=CC(=O)CC[C@@]43C)[C@@H]1CC[C@@H]2O [testosterone, reference compound]
- metabolic stability toward liver microsomes (in words) [2]: readily degraded
